In US8252832B2, “Kinesin inhibitors as cancer therapeutics” (Novartis AG, priority 2007, dated 2012):
Marks after values point to notes of the source that are not given here.

Test system: KMS-11-luc disseminated disease
Test: KMS-11-luc disseminated disease model, tumor response and survival
Type: in vivo, mouse
Description: Experiments were performed using immunodeficient SCID-Beige female mice approximately 7-8 weeks old (Charles River Laboratories, Wilmington, Mass.). […] Routine animal care and assurance of welfare were as described above.
Human KMS-11-luc multiple myeloma cells were obtained from the laboratory of Suzanne Trudel at the University of Toronto (Ontario, Canada) and tested to be free of Mycoplasma sp. and murine viruses in the IMPACT1 PCR assay panel (RADIL, University of Missouri, Columbia, Mo.). Prior to our receiving this cell line, it had been stably engineered to express luciferase by retroviral transfection of the pGC-gfp/luc vector. KMS-11-luc cells were grown in Iscove's medium supplemented with 2 mmol/L L-glutamine (Mediatech, Inc., Hemdon, Va.) and 10% fetal bovine serum (JRH Biosciences, catalog #12003-1000M). These cells were grown as suspension cultures, maintained at 37° C. in a humidified atmosphere containing 5% carbon dioxide. Cells were cultured for fewer than 10 passages prior to use. Cells were harvested at approximately 2 million cells/mL, and centrifuged at ˜800×g for 5 minutes at 4° C. and then resuspended in a 1:1 mixture of cold Hank's balanced salt solution (HBSS) and Matrigel™ (Mediatech Inc., catalog #21-021-CV; BD Biosciences, catalog #354234, respectively) at a concentration of 50 million cells/mL for implantation subcutaneously (injection volume of 0.2 mL). Alternatively, for the disseminated disease model, cells were prepared only in cold HBSS at a concentration of 100 million cells/mL for intravenous (i.v.) implantation via the tail vein (injection volume of 0.1 mL).
Compound IIa and SB-715992 (free base) were formulated in 20% Captisol for a dose volume of 8 mL/kg. Doses were adjusted to each animal's body weight.
For the efficacy evaluation in the disseminated disease model, 10 million cells in HBSS were injected i.v. via the tail vein in a total volume of […]. Forty mice were randomized and enrolled on study 10 days post-implant, with a mean photon count in the leg bones (right+left) of approximately 9×10^5 photons/second, as determined by bioluminescence imaging. Approximately 10 minutes prior to imaging, mice were injected i.p. with 150 mg/kg luciferin (Xenogen Corporation, Alameda, Calif.), followed by anesthetization with isoflurane. Photon emission was measured using a charge coupled device camera in the IVIS imaging system (Xenogen Corporation). Briefly, a gray-scale image of the mice was captured, followed by an overlay of a bioluminescence map representing the spatial distribution of photons detected from cleaved luciferin in the cancer cells expressing luciferase. Signal intensity was quantified using a customized version of the IGOR Pro version 4.09A Software (WaveMetrics, Inc., Lake Oswego, Oreg.) called Living Image version 2.50.2 (Xenogen). The sum of all detected photon counts from the right+left legs were determined. Bioluminescence of cancer cells in the animals was measured by imaging on designated days until the first mice developed hind limb paralysis due to disease burden, the main end point for when to humanely euthanize mice. The day of euthanasia for each mouse was recorded, and the remaining percentage of mice surviving was plotted over time (Kaplan-Meier survival analysis). P values were calculated using the log-rank test (GraphPad Prism 4.0 software) to assess differences between treated and control groups (p<0.05 was considered significant). […] Data analysis was as described above.

CC(C)(C)[C@H](c1nc(-c2cc(F)ccc2F)cn1Cc1ccccc1)N(CC[C@H](N)CF)C(=O)CO [Compound IIa]
T/C, Day 13 (%) (0.25 mg/kg, q4d × 3, i.v): 15%
Δ Tumor Bioluminescence, Day 13 (0.25 mg/kg, q4d × 3, i.v): 2.2 × 10^7 ± 1.1 × 10^6 photons/sec
Mean Day of Survival (0.25 mg/kg, q4d × 3, i.v., listed as COMPOUND IIa): 29** day
Mean Day of Survival (0.25 mg/kg, q4d × 3, i.v., listed as compound IIa): 29 days
T/C, Day 13 (%) (0.5 mg/kg, q4d × 3, i.v): 0.7* %
Δ Tumor Bioluminescence, Day 13 (0.5 mg/kg, q4d × 3, i.v): 1.1 × 10^6 ± 5.8 × 10^5 photons/sec
Mean Day of Survival (0.5 mg/kg, q4d × 3, i.v., listed as COMPOUND IIa): 35** day
Mean Day of Survival (0.5 mg/kg, q4d × 3, i.v., listed as compound IIa): 35 days
Regression, Day 13 (%) (1 mg/kg, q4d × 3, i.v.): 47%
Δ Tumor Bioluminescence, Day 13 (1 mg/kg, q4d × 3, i.v.): −4.3 × 10^5 ± 1.7 × 10^5 photons/sec
Mean Day of Survival (1 mg/kg, q4d × 3, i.v., listed as COMPOUND IIa): 52** day
Mean Day of Survival (1 mg/kg, q4d × 3, i.v., listed as compound IIa): 52 days
